Assay results published in patent publication US8012983B2, “Substituted triazolopyrazines useful for the treatment of degenerative and inflammatory diseases” (Galapagos NV, priority 2008, dated 2011).

System: MMP1 expression by activated synovial fibroblasts (RASFs)
Test: 'MMP assay': complex trigger-induced MMP1 expression by synovial fibroblasts (MMP1 ELISA)
Assay type: cell-based
Conditions: Homo sapiens, Fibroblast; RASFs, complex trigger, 48 hrs; read-out: MMP1 IC50
Description: A 384-well format ELISA for measurement of MMP1 is developed. Various primary antibodies are tested, as well as various ELISA protocols. The following protocol is developed and validated to measure MMP1 levels in SF supernatant in 384 well plates: white Lumitrac 600 384 well plates (Greiner) are coated with 2 μg/mL anti-MMP1 antibody MAB1346 (Chemicon). The antibody is diluted in buffer 40 (1.21 g Tris base (Sigma), 0.58 g NaCl (Calbiochem) and 5 ml 10% NaN3 (Sigma) in 1 L milliQ water and adjusted to pH 8.5). After overnight incubation at 4° C., plates are washed with PBS (80 g NaCl, 2 g KCl (Sigma), 11.5 g Na2HPO4.7H2O and 2 g KH2PO4 in 10 L milliQ; pH 7.4) and blocked with 100 μL/well Casein buffer (2% Casein (VWR International) in PBS). Next day, casein buffer is removed from ELISA plates and replaced by 50 μL/well EC buffer (4 g casein, 2.13 g Na2HPO4 (Sigma), 2 g bovine albumin (Sigma), 0.69 g NaH2PO4.H2O (Sigma), 0.5 g CHAPS (Roche), 23.3 g NaCl, 4 ml 0,5 M EDTA pH 8 (Invitrogen), 5 ml 10% NaN3 in 1 L milliQ and adjusted to pH 7.0). 0.25 mM DTT (Sigma) is added to the thawed samples plates. After removal of the EC buffer, 20 μL of sample is transferred to the ELISA plates. After overnight incubation at 4° C. plates are washed twice with PBS and once with PBST (PBS with 0.05% Tween-20 (Sigma)) and incubated with 35 μL/well biotinylated anti-MMP1 antibody solution (R&D). This secondary antibody is diluted in buffer C (0.82 g NaH2PO4.H2O, 4.82 g Na2HPO4, 46.6 g NaCl, 20 g bovine albumin and 4 mL 0,5M EDTA pH 8 in 2 L milliQ and adjusted to pH 7.0) at a concentration of 5 μg/mL. After 2 h of incubation at RT, plates are washed as described above and incubated with 50 μL/well streptavidin-HRP conjugate (Biosource). Streptavidin-HRP conjugate is diluted in buffer C at a concentration of 0.25 μg/mL. After 45 min, plates are washed as described above and incubated for 5 min with 50 μL/well BM Chem ELISA Substrate (Roche). Readout is performed on the Luminoscan Ascent Luminometer (Labsystems) with an integration time of 200 msec or with an Envision reader (Perkin Elmer).
The increase of MMP1 expression by SFs upon treatment with cytokines relevant in the field of RA (TNF-α, IL1β and OSM) or a combination thereof is shown in FIG. 2 as white bars. For this experiment, SFs are seeded in 96 well plates, 3,000 cells/well. 24 h later, the medium is changed to M199 medium supplemented with 1% FBS. One day after the medium change, cytokines or combinations thereof are added to the cultures, each cytokine being added to a final concentration of 25 ng/mL. 72 h after cytokine addition, the supernatant is collected and processed in the MMP1 ELISA as described in the protocol given above. In parallel with this experiment, SFs are triggered, using the same protocol, with the supernatant of THP1 cells (2-fold diluted in M199+1% FBS) treated with the same cytokines or combinations of cytokines for 48 h in M199 medium+1% FBS. The induction of the MMP1 expression by SFs triggered with the supernatants of TNF-α-treated THP1 cells is stronger (>4.5 fold induction) as compared to the SFs triggered with recombinant TNF-α alone (3-fold induction) and almost equals the 5-fold induction obtained by a mixture of 3 purified cytokines (TNF-α, IL1βb, OSM). […] As the role of TNF-α in the RA pathogenesis is validated (TNF-α-blockers such as Infliximab and Etanercept show some efficacy in the treatment of RA patients) and the THP-1 cells are representative for monocytes/macrophages present in the joint of RA patients, the TNF-α-based trigger mixture prepared by contacting THP-1 cells with TNF-α will contain factors present in the joints of RA patients and subsequently is relevant to RA. This TNF-α-based complex trigger, further referred to as the ‘complex trigger’, will further be used as basis for the ‘MMP assay’. […]

SMILES: CC(C)(C)N1C[C@@H]2C[C@H]1CN2c1ccc(Nc2ncc(-c3coc(C(N)=O)c3)n3ncnc23)cc1 [Compound 3, 4-{8-[4-((1S,4S)-5-tert-Butyl-2,5-diaza-bicyclo[2.2.1]hept-2-yl)-phenylamino]-[1,2,4]triazolo[1,5-a]pyrazin-5-yl}-furan-2-carboxamide]
- IC50: > 1000 nM

SMILES: CC(C)N1C[C@@H]2C[C@H]1CN2c1ccc(Nc2ncc(-c3coc(C(N)=O)c3)n3ccnc23)cc1 [Compound 4, 4-{8-[4-((1S,4S)-5-Isopropyl-2,5-diaza-bicyclo[2.2.1]hept-2-yl)-phenylamino]-imidazo[1,2-a]pyrazin-5-yl}-furan-2-carboxamide]
- IC50: > 1000 nM

SMILES: CC(C)N1C[C@@H]2C[C@H]1CN2c1ccc(Nc2ncc(-c3cc(C(N)=O)n[nH]3)n3ncnc23)cc1 [Compound 5, 5-{8-(4-((1S,4S)-5-isopropyl-2,5-diazabicyclo[2.2.1]heptan-2-yl)phenyl-amino)-[1,2,4]triazolo[1,5-a]pyrazin-5-yl}-1H-pyrazole-3-carboxamide]
- IC50: 1 to 1000 nM

SMILES: CC(C)(C)N1C[C@@H]2C[C@H]1CN2c1ccc(Nc2ncc(-c3coc(C(N)=O)c3)n3ccnc23)cc1 [Compound 6]
- IC50: > 1000 nM

SMILES: CC(C)N1C[C@@H]2C[C@H]1CN2c1ccc(Nc2ncc(-c3cc[nH]c(=O)c3)n3ccnc23)cc1 [Compound 8, 4-{8-(4-((1S,4S)-5-isopropyl-2,5-diazabicyclo[2.2.1]heptan-2-yl)phenyl-amino)imidazo[1,2-a]pyrazin-5-yl}-1H-pyridin-2-one]
- IC50: 1 to 1000 nM

SMILES: CC(C)N1CC2CCC1CN2c1ccc(Nc2ncc(-c3coc(C(N)=O)c3)n3ncnc23)cc1 (centres unmarked) [Compound 9, 4-{8-(4-(5-isopropyl-2,5-diazabicyclo[2.2.2]octan-2-yl)phenylamino)[1,2,4]-triazolo[1,5-a]pyrazin-5-yl}-furan-2-carboxamide]
- IC50: 1 to 1000 nM

SMILES: CC(C)N1CC2CCC(C1)N2c1ccc(Nc2ncc(-c3coc(C(N)=O)c3)n3ccnc23)cc1 [Compound 11, 4-{8-(4-(3-isopropyl-3,8-diazabicyclo[3.2.1]octan-8-yl)phenylamino)-imidazo[1,2-a]pyrazin-5-yl}-furan-2-carboxamide]
- IC50: > 1000 nM

SMILES: CC(C)N1C2CCC1CN(c1ccc(Nc3ncc(-c4coc(C(N)=O)c4)n4ncnc34)cc1)C2 [Compound 12, 4-{8-(4-(8-isopropyl-3,8-diazabicyclo[3.2.1]octan-3-yl)phenylamino)[1,2,4]-triazolo[1,5-a]pyrazin-5-yl}-furan-2-carboxamide]
- IC50: > 1000 nM

SMILES: CC(C)N1C[C@@H]2C[C@H]1CN2c1ccc(Nc2ncc(-c3cc(C(N)=O)n[nH]3)n3ncnc23)cn1 [Compound 15, 5-{8-(6-((1S,4S)-5-isopropyl-2,5-diazabicyclo[2.2.1]heptan-2-yl)pyridin-3-ylamino)-[1,2,4]triazolo[1,5-a]pyrazin-5-yl}-1H-pyrazole-3-carboxylic acid amide]
- IC50: > 1000 nM

SMILES: CC(C)(C)N1C[C@@H]2C[C@H]1CN2c1ccc(Nc2ncc(-c3ccc4c(c3)CNC4=O)n3ncnc23)cc1 [Compound 16, 5-{8-(4-((1S,4S)-5-tert-butyl-2,5-diazabicyclo[2.2.1]heptan-2-yl)phenylamino)-[1,2,4]triazolo-[1,5-a]pyrazin-5-yl}-2,3-dihydro-isoindol-1-one]
- IC50: > 1000 nM

SMILES: CC(C)(C)N1C[C@@H]2C[C@H]1CN2c1ccc(Nc2ncc(-c3cc(C(N)=O)n[nH]3)n3ncnc23)cc1 [Compound 17, 5-{8-(4-((1S,4S)-5-tert-butyl-2,5-diazabicyclo[2.2.1]heptan-2-yl)phenyl-amino)-[1,2,4]triazolo[1,5-a]pyrazin-5-yl}-1H-pyrazole-3-carboxylic acid amide]
- IC50: > 1000 nM

SMILES: CC(C)N1C[C@@H]2C[C@H]1CN2c1ccc(Nc2ncc(-c3ccc4c(c3)CNC4=O)n3ncnc23)cn1 [Compound 18, 5-{8-(6-((1S,4S)-5-isopropyl-2,5-diazabicyclo[2.2.1]heptan-2-yl)pyridin-3-ylamino)-[1,2,4]triazolo[1,5-a]pyrazin-5-yl}-2,3-dihydro-isoindol-1-one]
- IC50: > 1000 nM

SMILES: CCOc1cc(-c2cnc(Nc3ccc(N4C[C@@H]5C[C@H]4CN5C(C)C)cc3)c3ncnn23)ccn1 [Compound 19, 5-(2-ethoxypyridin-4-yl)-N-(4-((1S,4S)-5-isopropyl-2,5-diazabicyclo[2.2.1]heptan-2-yl)phenyl)-[1,2,4]triazolo[1,5-a]pyrazin-8-amine]
- IC50: > 1000 nM

SMILES: CC(C)N1C[C@@H]2C[C@H]1CN2c1ccc(Nc2ncc(-c3cc[nH]c(=O)c3)n3ncnc23)cc1 [Compound 20, 4-(8-(4-((1S,4S)-5-isopropyl-2,5-diazabicyclo[2.2.1]heptan-2-yl)phenylamino)-[1,2,4]triazolo[1,5-a]pyrazin-5-yl)pyridin-2(1H)-one]
- IC50: > 1000 nM

SMILES: CCOC(=O)c1cc(-c2cnc(Nc3ccc(N4C[C@@H]5C[C@H]4CN5C(C)C)cc3)c3ncnn23)[nH]n1 [Compound 21, Ethyl 5-(8-(4-((1S,4S)-5-isopropyl-2,5-diazabicyclo[2.2.1]heptan-2-yl)phenylamino)-[1,2,4]triazolo[1,5-a]pyrazin-5-yl)-1H-pyrazole-3-carboxylate]
- IC50: > 1000 nM

SMILES: CCOc1cc(-c2cnc(Nc3ccc(N4C[C@@H]5C[C@H]4CN5C(C)C)cc3)c3nccn23)ccn1 [Compound 22, 5-(2-ethoxypyridin-4-yl)-N-(4-((1S,4S)-5-isopropyl-2,5-diazabicyclo[2.2.1]heptan-2-yl)phenyl)imidazo[1,2-a]pyrazin-8-amine]
- IC50: > 1000 nM

SMILES: CC(C)N1C[C@@H]2C[C@H]1CN2c1ccc(Nc2ncc(-c3noc(C(N)=O)n3)n3ncnc23)cc1 [Compound 23, 3-(8-(4-((1S,4S)-5-isopropyl-2,5-diazabicyclo[2.2.1]heptan-2-yl)phenylamino)-[1,2,4]triazolo[1,5-a]pyrazin-5-yl)-1,2,4-oxadiazole-5-carboxamide]
- IC50: > 1000 nM

SMILES: CC(C)N1C[C@@H]2C[C@H]1CN2c1cccc(Nc2ncc(-c3coc(C(N)=O)c3)n3ncnc23)c1 [Compound 24, 4-(8-(3-((1S,4S)-5-isopropyl-2,5-diazabicyclo[2.2.1]heptan-2-yl)phenylamino)-[1,2,4]triazolo[1,5-a]pyrazin-5-yl)furan-2-carboxamide]
- IC50: > 1000 nM

SMILES: CC(C)N1C[C@@H]2C[C@H]1CN2c1cccc(Nc2ncc(-c3coc(C(N)=O)c3)n3ccnc23)c1 [Compound 25, 4-(8-(3-((1S,4S)-5-isopropyl-2,5-diazabicyclo[2.2.1]heptan-2-yl)phenylamino)imidazo[1,2-a]pyrazin-5-yl)furan-2-carboxamide]
- IC50: > 1000 nM

SMILES: CC(C)N1C[C@@H]2C[C@H]1CN2c1cccc(Nc2ncc(-c3ccc4c(c3)CNC4=O)n3ncnc23)c1 [Compound 26, 5-(8-(3-((1S,4S)-5-isopropyl-2,5-diazabicyclo[2.2.1]heptan-2-yl)phenylamino)-[1,2,4]triazolo[1,5-a]pyrazin-5-yl)isoindolin-1-one]
- IC50: > 1000 nM
